pIC50: −log10 of the molar value.
Key:
Test in all cases: cells
Type in all cases: functional, cell-based
Conditions in all cases: Homo sapiens
[1] = system: KE-37;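 also: growth inhibition of KE-37 cells, read out with a cell viability assay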
Description: SANGER: Inhibition of human KE-37 cell growth in a cell viability assay.

[2] = system: KARPAS-45;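 also: inhibition of cell line growth, read out through a viability assay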
Description: SANGER: Inhibition of human KARPAS-45 cell growth in a cell viability assay.

[3] = system: GCIY;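 also: growth inhibition of the human GCIY cell line, read out by a cell viability assay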
Description: SANGER: Inhibition of human GCIY cell growth in a cell viability assay.

[4] = system: MC116;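 also: growth inhibition of MC116 cells, read out with a cell viability assay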
Description: SANGER: Inhibition of human MC116 cell growth in a cell viability assay.

[5] = system: SBC-1;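 also: cell viability assay measuring growth inhibition of the SBC-1 cell line, IC50 being the concentration that halves growth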
Description: SANGER: Inhibition of human SBC-1 cell growth in a cell viability assay.

[6] = system: HT-144
Description: SANGER: Inhibition of human HT-144 cell growth in a cell viability assay.

[7] = system: DEL;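 also: growth inhibition of the human DEL cell line, read out with a cell viability assay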
Description: SANGER: Inhibition of human DEL cell growth in a cell viability assay.

[8] = system: ES7;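 also: growth inhibition of cultured human ES7 cells, read out as cell viability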
Description: SANGER: Inhibition of human ES7 cell growth in a cell viability assay.

[9] = system: MZ1-PC;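 also: cell viability assay measuring growth inhibition of human MZ1-PC cells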
Description: SANGER: Inhibition of human MZ1-PC cell growth in a cell viability assay.

[10] = system: TE-12;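 also: growth inhibition of TE-12 cells, read out by a cell viability assay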
Description: SANGER: Inhibition of human TE-12 cell growth in a cell viability assay.

[11] = system: HC-1;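 also: growth inhibition of HC-1 cells measured by a cell viability assay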
Description: SANGER: Inhibition of human HC-1 cell growth in a cell viability assay.

[12] = system: SK-N-DZ;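 also: growth inhibition of the cancer cell line, read out through a viability assay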
Description: SANGER: Inhibition of human SK-N-DZ cell growth in a cell viability assay.

[13] = system: EW-24;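 also: human EW-24 cancer cell line, growth inhibition read out via a cell viability assay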
Description: SANGER: Inhibition of human EW-24 cell growth in a cell viability assay.

[14] = system: EW-18;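 also: growth inhibition of EW-18 cells, read out by a cell viability assay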
Description: SANGER: Inhibition of human EW-18 cell growth in a cell viability assay.

[15] = system: Calu-6;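 also: growth of human Calu-6 cells, read out by a cell viability assay, IC50 marking inhibition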
Description: SANGER: Inhibition of human Calu-6 cell growth in a cell viability assay.

[16] = system: HCC1187;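 also: growth inhibition of HCC1187 cells, read out with a cell viability assay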
Description: SANGER: Inhibition of human HCC1187 cell growth in a cell viability assay.

[17] = system: HD-MY-Z;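 also: growth inhibition of HD-MY-Z cells, read out with a cell viability assay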
Description: SANGER: Inhibition of human HD-MY-Z cell growth in a cell viability assay.

[18] = system: RKO;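 also: growth inhibition of human RKO cells, read out with a cell viability assay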
Description: SANGER: Inhibition of human RKO cell growth in a cell viability assay.

[19] = system: NTERA-2-cl-D1;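 also: inhibition of cell growth, measured with a cell viability assay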
Description: SANGER: Inhibition of human NTERA-S-cl-D1 cell growth in a cell viability assay.

[20] = system: TE-8;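 also: growth inhibition of TE-8 cells, measured with a cell viability readout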
Description: SANGER: Inhibition of human TE-8 cell growth in a cell viability assay.

[21] = system: MFM-223
Description: SANGER: Inhibition of human MFM-223 cell growth in a cell viability assay.

[22] = system: CTV-1;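 also: growth inhibition of the cell line, read out with a cell viability assay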
Description: SANGER: Inhibition of human CTV-1 cell growth in a cell viability assay.

[23] = system: RS4-11;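 also: growth inhibition of RS4-11 cells, read out by a cell viability assay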
Description: SANGER: Inhibition of human RS4-11 cell growth in a cell viability assay.

[24] = system: LS-513
Description: SANGER: Inhibition of human LS-513 cell growth in a cell viability assay.

[25] = system: SW 962;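 also: growth inhibition of human SW962 cells, read out by a cell viability assay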
Description: SANGER: Inhibition of human SW962 cell growth in a cell viability assay.

[26] = system: RPMI-8226
Description: SANGER: Inhibition of human RPMI-8226 cell growth in a cell viability assay.

[27] = system: RH-1;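 also: growth inhibition of human RH-1 cells, read out with a cell viability assay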
Description: SANGER: Inhibition of human RH-1 cell growth in a cell viability assay.

[28] = system: DB
Description: SANGER: Inhibition of human DB cell growth in a cell viability assay.

[29] = system: KNS-42;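 also: growth inhibition of KNS-42 cells, read out with a cell viability assay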
Description: SANGER: Inhibition of human KNS-42 cell growth in a cell viability assay.

[30] = system: LAMA-84;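 also: growth inhibition of LAMA-84 cells, read out with a cell viability assay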
Description: SANGER: Inhibition of human LAMA-84 cell growth in a cell viability assay.

[31] = system: D-502MG
Description: SANGER: Inhibition of human D-502MG cell growth in a cell viability assay.

[32] = system: IST-SL1;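 also: growth inhibition of human IST-SL1 cells, read out with a cell viability assay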
Description: SANGER: Inhibition of human IST-SL1 cell growth in a cell viability assay.

[33] = system: EW-16;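 also: growth inhibition of human EW-16 cells, read out as cell viability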
Description: SANGER: Inhibition of human EW-16 cell growth in a cell viability assay.

[34] = system: KP-N-YS;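 also: cell viability assay measuring inhibition of cell line growth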
Description: SANGER: Inhibition of human KP-N-YS cell growth in a cell viability assay.

[35] = system: DJM-1;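 also: growth inhibition of human DJM-1 cells, read out by a cell viability assay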
Description: SANGER: Inhibition of human DJM-1 cell growth in a cell viability assay.

[36] = system: CTB-1
Description: SANGER: Inhibition of human CTB-1 cell growth in a cell viability assay.

[37] = system: MZ2-MEL;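 also: growth inhibition of MZ2-MEL cells read out with a cell viability assay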
Description: SANGER: Inhibition of human MZ2-MEL cell growth in a cell viability assay.

[38] = system: OMC-1;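 also: growth inhibition of the OMC-1 cell line, measured by a cell viability assay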
Description: SANGER: Inhibition of human OMC-1 cell growth in a cell viability assay.

[39] = system: NCI-H1155;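 also: cell growth inhibition measured by a viability assay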
Description: SANGER: Inhibition of human NCI-H1155 cell growth in a cell viability assay.

[40] = system: ES5;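 also: growth inhibition of human ES5 cells, read out by a cell viability assay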
Description: SANGER: Inhibition of human ES5 cell growth in a cell viability assay.

[41] = system: MZ7-mel;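 also: growth inhibition of human MZ7-mel cells, measured by a cell viability assay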
Description: SANGER: Inhibition of human MZ7-mel cell growth in a cell viability assay.

[42] = system: NMC-G1;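 also: growth inhibition of the NMC-G1 cell line, measured with a cell viability read-out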
Description: SANGER: Inhibition of human NMC-G1 cell growth in a cell viability assay.

[43] = system: LC-2-ad;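 also: growth inhibition of human LC-2-ad cells, read out with a cell viability assay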
Description: SANGER: Inhibition of human LC-2-ad cell growth in a cell viability assay.

[44] = system: CP66-MEL;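 also: growth inhibition of CP66-MEL cells determined in a cell viability assay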
Description: SANGER: Inhibition of human CP66-MEL cell growth in a cell viability assay.

[45] = system: SW872;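 also: growth inhibition of SW872 cells, read out by a viability assay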
Description: SANGER: Inhibition of human SW872 cell growth in a cell viability assay.

[46] = system: CGTH-W-1;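 also: growth inhibition of human CGTH-W-1 cells measured by cell viability assay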
Description: SANGER: Inhibition of human CGTH-W-1 cell growth in a cell viability assay.

[47] = system: D283 Med
Description: SANGER: Inhibition of human D-283MED cell growth in a cell viability assay.

[48] = system: SW684;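 also: growth inhibition of human SW684 cells, measured by a cell viability assay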
Description: SANGER: Inhibition of human SW684 cell growth in a cell viability assay.

[49] = system: JVM-2;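 also: growth inhibition of JVM-2 cells determined by a cell viability assay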
Description: SANGER: Inhibition of human JVM-2 cell growth in a cell viability assay.

[50] = system: MEG-01;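 also: growth inhibition of MEG-01 cells, read out by a cell viability assay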
Description: SANGER: Inhibition of human MEG-01 cell growth in a cell viability assay.

[51] = system: NEC8;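 also: growth inhibition of human NEC8 cells, read out by a cell viability assay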
Description: SANGER: Inhibition of human NEC8 cell growth in a cell viability assay.

[52] = system: GOTO;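 also: growth inhibition of GOTO cells, read out by a cell viability assay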
Description: SANGER: Inhibition of human GOTO cell growth in a cell viability assay.

[53] = system: BB49-HNC;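 also: cell viability assay read-out, reported as inhibition of BB49-HNC cell growth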
Description: SANGER: Inhibition of human BB49-HNC cell growth in a cell viability assay.

[54] = system: Mo
Description: SANGER: Inhibition of human Mo-T cell growth in a cell viability assay.

[55] = system: COLO-684
Description: SANGER: Inhibition of human COLO-684 cell growth in a cell viability assay.

[56] = system: CW-2;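 also: growth inhibition of CW-2 cells, read out by a cell viability assay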
Description: SANGER: Inhibition of human CW-2 cell growth in a cell viability assay.

[57] = system: EOL1;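 also: growth inhibition of EoL-1 cells, read out by a cell viability assay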
Description: SANGER: Inhibition of human EoL-1-cell cell growth in a cell viability assay.

[58] = system: EW-1;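 also: growth inhibition of the human EW-1 cell line, read out by a cell viability assay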
Description: SANGER: Inhibition of human EW-1 cell growth in a cell viability assay.

[59] = system: SK-LMS-1;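 also: growth inhibition of human SK-LMS-1 cells, read out with a cell viability assay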
Description: SANGER: Inhibition of human SK-LMS-1 cell growth in a cell viability assay.

[60] = system: NCI-H209;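 also: growth inhibition of human NCI-H209 cells, measured by a cell viability assay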
Description: SANGER: Inhibition of human NCI-H209 cell growth in a cell viability assay.

[61] = system: NOS-1
Description: SANGER: Inhibition of human NOS-1 cell growth in a cell viability assay.

[62] = system: BE-13
Description: SANGER: Inhibition of human BE-13 cell growth in a cell viability assay.

[63] = system: NCI-H1581
Description: SANGER: Inhibition of human NCI-H1581 cell growth in a cell viability assay.

[64] = system: HDLM-2
Description: SANGER: Inhibition of human HDLM-2 cell growth in a cell viability assay.

[65] = system: A704
Description: SANGER: Inhibition of human A704 cell growth in a cell viability assay.

[66] = system: NOMO-1
Description: SANGER: Inhibition of human NOMO-1 cell growth in a cell viability assay.

Structure (SMILES): C[C@]1(c2nc3c(C(N)=O)cccc3[nH]2)CCCN1 [VELIPARIB]
- pIC50 [1]: < 5.30
- pIC50 [2]: < 5.30
- pIC50 [3]: < 5.30
- pIC50 [4]: < 5.30
- pIC50 [5]: < 5.30
- pIC50 [6]: < 5.30
- pIC50 [7]: < 5.30
- pIC50 [8]: < 5.30
- pIC50 [9]: < 5.30
- pIC50 [10]: < 5.30
- pIC50 [11]: < 5.30
- pIC50 [12]: < 5.30
- pIC50 [13]: < 5.30
- pIC50 [14]: < 5.30
- pIC50 [15]: < 5.30
- pIC50 [16]: < 5.30
- pIC50 [17]: < 5.30
- pIC50 [18]: < 5.30
- pIC50 [19]: < 5.30
- pIC50 [20]: < 5.30
- pIC50 [21]: < 5.30
- pIC50 [22]: < 5.30
- pIC50 [23]: < 5.30
- pIC50 [24]: < 5.30
- pIC50 [25]: < 5.30
- pIC50 [26]: < 5.30
- pIC50 [27]: < 5.30
- pIC50 [28]: < 5.30
- pIC50 [29]: < 5.30
- pIC50 [30]: < 5.30
- pIC50 [31]: < 5.30
- pIC50 [32]: < 5.30
- pIC50 [33]: < 5.30
- pIC50 [34]: < 5.30
- pIC50 [35]: < 5.30
- pIC50 [36]: < 5.30
- pIC50 [37]: < 5.30
- pIC50 [38]: < 5.30
- pIC50 [39]: < 5.30
- pIC50 [40]: < 5.30
- pIC50 [41]: < 5.30
- pIC50 [42]: < 5.30
- pIC50 [43]: < 5.30
- pIC50 [44]: < 5.30
- pIC50 [45]: < 5.30
- pIC50 [46]: < 5.30
- pIC50 [47]: < 5.30
- pIC50 [48]: < 5.30
- pIC50 [49]: < 5.30
- pIC50 [50]: < 5.30
- pIC50 [51]: < 5.30
- pIC50 [52]: < 5.30
- pIC50 [53]: < 5.30
- pIC50 [54]: < 5.30
- pIC50 [55]: < 5.30
- pIC50 [56]: < 5.30
- pIC50 [57]: 5.97
- pIC50 [58]: < 5.30
- pIC50 [59]: < 5.30
- pIC50 [60]: < 5.30
- pIC50 [61]: < 5.30
- pIC50 [62]: < 5.30
- pIC50 [63]: < 5.30
- pIC50 [64]: < 5.30
- pIC50 [65]: < 5.30
- pIC50 [66]: < 5.30

Structure (SMILES): Fc1cc(-c2cc[nH]/c(=N/c3ccc(-n4cnc(N5CCOCC5)n4)cc3)n2)cc(N2CCOCC2)c1
- pIC50 [1]: 6.54
- pIC50 [2]: 6.10
- pIC50 [3]: 6.89
- pIC50 [4]: 6.39
- pIC50 [5]: < 5.29
- pIC50 [6]: 6.83
- pIC50 [7]: 6.54
- pIC50 [8]: 6.49
- pIC50 [9]: 6.71
- pIC50 [10]: 5.92
- pIC50 [11]: 6.52
- pIC50 [12]: 5.73
- pIC50 [13]: < 5.29
- pIC50 [14]: 6.07
- pIC50 [15]: 6.29
- pIC50 [16]: 6.23
- pIC50 [17]: 5.94
- pIC50 [18]: 6.93
- pIC50 [19]: 6.50
- pIC50 [20]: 6.08
- pIC50 [21]: < 5.29
- pIC50 [22]: 6.39
- pIC50 [23]: 6.55
- pIC50 [24]: 5.94
- pIC50 [25]: < 5.29
- pIC50 [26]: 5.99
- pIC50 [27]: 6.04
- pIC50 [28]: 6.21
- pIC50 [29]: 5.96
- pIC50 [30]: 5.53
- pIC50 [31]: 5.98
- pIC50 [32]: 6.11
- pIC50 [33]: 6.35
- pIC50 [34]: 6.16
- pIC50 [35]: < 5.29
- pIC50 [36]: 5.96
- pIC50 [37]: 6.39
- pIC50 [38]: 5.40
- pIC50 [39]: 5.58
- pIC50 [40]: < 5.29
- pIC50 [41]: 5.54
- pIC50 [42]: 5.96
- pIC50 [43]: 6.46
- pIC50 [44]: 6.09
- pIC50 [45]: 6.27
- pIC50 [46]: 7.08
- pIC50 [47]: 5.59
- pIC50 [48]: 5.52
- pIC50 [49]: 5.48
- pIC50 [50]: 6.17
- pIC50 [51]: 5.99
- pIC50 [52]: 6.09
- pIC50 [53]: < 5.29
- pIC50 [54]: 5.78
- pIC50 [55]: 6.26
- pIC50 [56]: < 5.29
- pIC50 [57]: 6.30
- pIC50 [58]: 6.26
- pIC50 [59]: 6.34
- pIC50 [60]: 5.90
- pIC50 [61]: 6.51
- pIC50 [62]: 5.96
- pIC50 [63]: 5.87
- pIC50 [64]: 6.14
- pIC50 [65]: 6.36
- pIC50 [66]: 6.33

Structure (SMILES): CCNC(=O)c1noc(-c2cc(C(C)C)c(O)cc2O)c1-c1ccc(CN2CCOCC2)cc1 [LUMINESPIB]
- pIC50 [1]: 7.25
- pIC50 [2]: 7.03
- pIC50 [3]: 7.69
- pIC50 [4]: < 6.59
- pIC50 [5]: < 6.59
- pIC50 [6]: 8.81
- pIC50 [7]: 6.95
- pIC50 [8]: 7.47
- pIC50 [9]: 7.58
- pIC50 [10]: 7.75
- pIC50 [11]: 7.39
- pIC50 [12]: 6.75
- pIC50 [13]: < 6.59
- pIC50 [14]: 6.97
- pIC50 [15]: 7.10
- pIC50 [16]: < 6.59
- pIC50 [17]: 6.84
- pIC50 [18]: 8.08
- pIC50 [19]: 7.87
- pIC50 [20]: 8.63
- pIC50 [21]: < 6.59
- pIC50 [22]: 7.39
- pIC50 [23]: 7.47
- pIC50 [24]: 7.13
- pIC50 [25]: 7.54
- pIC50 [26]: 6.93
- pIC50 [27]: 7.21
- pIC50 [28]: 6.64
- pIC50 [29]: < 6.59
- pIC50 [30]: 7.38
- pIC50 [31]: < 6.59
- pIC50 [32]: < 6.59
- pIC50 [33]: 8.13
- pIC50 [34]: 7.08
- pIC50 [35]: 7.37
- pIC50 [36]: 6.87
- pIC50 [37]: 7.50
- pIC50 [38]: 7.76
- pIC50 [39]: < 6.59
- pIC50 [40]: < 6.59
- pIC50 [41]: 7.36
- pIC50 [42]: 7.64
- pIC50 [43]: 7.86
- pIC50 [44]: 7.10
- pIC50 [45]: 7.49
- pIC50 [46]: 7.63
- pIC50 [47]: < 6.59
- pIC50 [48]: < 6.59
- pIC50 [49]: < 6.59
- pIC50 [50]: 6.76
- pIC50 [51]: < 6.59
- pIC50 [52]: 6.76
- pIC50 [53]: 7.97
- pIC50 [54]: < 6.59
- pIC50 [55]: 7.09
- pIC50 [56]: < 6.59
- pIC50 [57]: < 6.59
- pIC50 [58]: 7.55
- pIC50 [59]: 8.34
- pIC50 [60]: < 6.59
- pIC50 [61]: 7.80
- pIC50 [62]: < 6.59
- pIC50 [63]: < 6.59
- pIC50 [64]: 7.39
- pIC50 [65]: < 6.59
- pIC50 [66]: 7.14

Structure (SMILES): Cc1n[nH]c2ccc(-c3cncc(OC[C@@H](N)Cc4c[nH]c5ccccc45)c3)cc12 [A-443654]
- pIC50 [1]: 6.96
- pIC50 [2]: 6.53
- pIC50 [3]: 6.58
- pIC50 [4]: 6.86
- pIC50 [5]: 6.80
- pIC50 [6]: 6.82
- pIC50 [7]: 6.64
- pIC50 [8]: < 5.99
- pIC50 [9]: 7.10
- pIC50 [10]: 6.71
- pIC50 [11]: 6.68
- pIC50 [12]: < 5.99
- pIC50 [13]: 6.08
- pIC50 [14]: < 5.99
- pIC50 [15]: 6.86
- pIC50 [16]: < 5.99
- pIC50 [17]: < 5.99
- pIC50 [18]: 6.87
- pIC50 [19]: 7.56
- pIC50 [20]: 6.86
- pIC50 [21]: < 5.99
- pIC50 [22]: 6.49
- pIC50 [23]: 6.77
- pIC50 [24]: < 5.99
- pIC50 [25]: 6.59
- pIC50 [26]: 6.17
- pIC50 [27]: < 5.99
- pIC50 [28]: 6.43
- pIC50 [29]: 6.61
- pIC50 [30]: 6.21
- pIC50 [31]: < 5.99
- pIC50 [32]: 6.36
- pIC50 [33]: 6.67
- pIC50 [34]: < 5.99
- pIC50 [35]: 6.48
- pIC50 [36]: 6.29
- pIC50 [37]: < 5.99
- pIC50 [38]: 6.72
- pIC50 [39]: 6.25
- pIC50 [40]: < 5.99
- pIC50 [41]: 6.25
- pIC50 [42]: 6.06
- pIC50 [43]: 7.65
- pIC50 [44]: 6.34
- pIC50 [45]: 6.59
- pIC50 [46]: 6.61
- pIC50 [47]: < 5.99
- pIC50 [48]: < 5.99
- pIC50 [49]: < 5.99
- pIC50 [50]: 6.09
- pIC50 [51]: < 5.99
- pIC50 [52]: 6.44
- pIC50 [53]: < 5.99
- pIC50 [54]: < 5.99
- pIC50 [55]: 7.10
- pIC50 [56]: < 5.99
- pIC50 [57]: 6.78
- pIC50 [58]: 6.65
- pIC50 [59]: 6.56
- pIC50 [60]: 6.61
- pIC50 [61]: 7.03
- pIC50 [62]: 6.30
- pIC50 [63]: 6.22
- pIC50 [64]: < 5.99
- pIC50 [65]: 6.58
- pIC50 [66]: 6.25
